Experimental data published in patent publication US20120010178A1, “METHODS AND COMPOUNDS FOR TREATMENT OF NEURODEGENERATIVE DISORDERS” (PRESIDENT AND FELLOWS OF HARVARD COLLEGE, priority 2008, published 2012).
Entries after “also recorded” stand apart in the source; their conditions may differ.

Tests used:
[1] = molecular target: T1, GSK3b (Ser-9 phosphorylation) (Homo sapiens, UniProt P49841); assay: p-GSK(Ser9) phosphorylation in patient fibroblasts (western blot / immunofluorescence); type: cell-based; conditions: patient fibroblasts
T1 construct: endogenous in cells; host or cells: SMA patient fibroblasts (GM09677), starved in 0.5% FBS before treatment
T1 sequence (P49841 whole entry): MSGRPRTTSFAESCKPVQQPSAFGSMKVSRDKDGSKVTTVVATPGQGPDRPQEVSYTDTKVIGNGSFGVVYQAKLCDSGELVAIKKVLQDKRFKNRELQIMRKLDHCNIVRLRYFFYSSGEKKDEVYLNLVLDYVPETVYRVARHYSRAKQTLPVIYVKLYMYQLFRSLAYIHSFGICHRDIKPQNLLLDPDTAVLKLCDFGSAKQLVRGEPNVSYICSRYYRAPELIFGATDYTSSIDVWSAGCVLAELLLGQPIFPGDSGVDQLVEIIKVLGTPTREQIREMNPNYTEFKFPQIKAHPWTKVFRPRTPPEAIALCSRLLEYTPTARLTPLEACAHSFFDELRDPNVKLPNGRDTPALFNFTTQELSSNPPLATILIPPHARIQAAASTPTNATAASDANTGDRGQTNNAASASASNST
Protocol: Compounds were stored at appropriate temperature and dissolved accordingly to the manufacturers (Tocris, Enzo, EMD and Sigma-Aldrich) in DMSO (Sigma-Aldrich), unless stated otherwise (Monensin Na in EtOH, DMPQ in water). Growth factors and PDGF neutralizing antibodies (R&D Systems) were reconstituted with buffers recommended by the supplier. For generation of the dose curves, 1×10^3 fibroblasts were plated on to 96-well Greiner Senso plates (VWR) and treated with compounds on the second day then fixed and stained at the indicated time points. For GSK inhibitors and performing p-GSK3b(Ser9) detection, two days after plating growth media containing 5% FBS was replaced to the media with FBS reduced down to 0.5%, to starve cells for 72 hours. Addition of the GSK inhibitors was done in 5% FBS enriched media. As previously described, starvation increases levels of constitutively activate GSK3b kinase, allowing to achieve a more dramatic inhibitory effect when GSK inhibitors are added together with growth factors that are also known to inhibit GSK by Ser-9 phosphorylation. […] For all compounds and growth factors control wells received solvent in amount equivalent to the highest concentration of the compound in a dose curve. For PDGF inhibitory studies, cells were pre-treated with kinase inhibitors for 2 hours and PDGF was added with a fresh kinase inhibitor solution and incubated for an additional 3 days.

SMN [2] = assay: SMN levels in mouse (ES-cell derived) motor neurons; type: cell-based; conditions: for SMN levels in motor neurons (in words): mouse motor neurons
Protocol: Mouse HB9-GFP derived SMN deficient motor neuron cells were incubated for 2 days with compounds from libraries and collections.
Motor neurons were produced from mouse ES-cells expressing cherry fluorescent protein (CFP) under the control of the motor neuron-selective Hb9 promoter, as previously described (Wichterle et al., 2002).
GFP expressing motor neurons were derived from mouse ES cells as described below. After growing for approximately 1 week, motor neurons were treated with allsterpaullone. Two days after treatment with allsterpaullone, cells were fixed and stained with SMN antibody or GFP antibody.
mES cells were differentiated into motor neurons according to methods adapted from Wichterle et. al., Cell (2002), 110:385-397. Briefly, mES cells were grown to 70-80% confluence in 10-cm plates (Falcon) in ES cell medium. To form embryoid bodies, cells were washed once with PBS to eliminate mES medium and then incubated with 1 ml of 0.25% trypsin (GIBCO) for 5-10 min at 21-25° C. (RT). Cells were then resuspended in 10 ml of DM1 medium (DMEM-F12, GIBCO), 10% knockout serum (GIBCO), penicillin, streptomycin, glutamine (GIBCO) and 2-mercaptoethanol (GIBCO), counted and plated at a concentration of 200,000 cells per ml in Petri dishes (Falcon). Two days later, embryoid bodies were collected and resuspended into new Petri dishes containing DM1 medium supplemented with RAc (100 nM; stock 1 mM in DMSO, Sigma) and HhAg (100 nM). […] treatment was repeated with the same concentration of RAc (100 nM) and high concentration of HhAg (1 μM). On day 6, the embryoid bodies were collected in a 15-ml Falcon tube, and incubated in Earle's balanced salt solution with 20 units of Papain and 1,000 units of DNase I (Worthington Biochemical) for 10 min at 37° C. The mixture was then triturated with a 10-ml pipette and centrifugated for 5 min at 800 rpm. The resulting cell pellet was washed with PBS and resuspended in F12 medium (F12 medium, GIBCO) with 2% fetal bovine serum (GIBCO), B-27 supplement (GIBCO), (GDNF and BDNF, 20 ng ml^−1, R&D Systems). The cells were counted and plated on poly-ornithine coated 96-well plates (VWR).

SMN [3] = assay: SMN immunofluorescence quantification (cytoplasm, nucleus, GEMs) in fibroblasts from SMA patients; type: cell-based, human; conditions: for levels of cytoplasmic and nuclear SMN (in words): substance alone
Method in brief: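 SMN immunostained and imaged by automated confocal microscopy; per-cell cytoplasmic and nuclear SMN intensity and GEM number and intensity quantified. PFA fixation used for screening.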

O=C1Cc2c([nH]c3ccc([N+](=O)[O-])cc23)-c2ccccc2N1 [Alsterpaullone]
p-GSK-Ser9 phosphorylation (in words) [1]: increase in a dose dependent manner
Gem intensity in neurons (in words) (SMN [2]; ES-cell derived neurons): increases Gem intensity in neurons; also recorded: main increase was observed in Gem Intensity parameter
SMN levels in motor neurons (in words) (SMN [2]): increases level of SMN in neurons; also recorded: able to elevate Smn
SMN levels in motor neurons (in words) (SMN [2]; listed as allsterpaullone): Increased SMN levels
levels of cytoplasmic and nuclear SMN (in words) (SMN [3]; SMA patient fibroblasts): increase SMN levels; also recorded: Most active compounds
levels of cytoplasmic and nuclear SMN (in words) (SMN [3]; SMA patient fibroblasts, listed as alsterpaullone): able to elevate SMN in patient fibroblasts
effect on SMN level (SMN [3]; fed cells (10% serum, not starved)): weak effect
effect on SMN level (SMN [3]; pre-starved cells that received fresh media with 10% serum along with compound): 1.9 fold
effect on SMN level (SMN [3]; pre/post-starved cells (0.5% serum)): 1.6 fold

PDGF
p-GSK-Ser9 phosphorylation (in words) [1]: phosphorylates GSK313 in a dose-dependent manner
SMN levels in motor neurons (in words) (SMN [2]): no effect on elevating SMN
fold increase in cytoplasmic SMN (SMN [3]; SMA patient fibroblasts): 2.3 fold
fold increase in nuclear SMN (SMN [3]; SMA patient fibroblasts): 1.95 fold
levels of cytoplasmic and nuclear SMN (in words) (SMN [3]; SMA patient fibroblasts): increase in SMN levels
levels of cytoplasmic and nuclear SMN (in words) (SMN [3]; SMA patient fibroblasts, listed as platelet derived PDGF): strongest activator
Avg. SMN fold increase (SMN [3]; human PDGF isoforms, SMA patient fibroblasts): 2-2.3 fold
